# Test results as given in patent US20090030086A1, “ANTIMICROBIAL AGENTS” (priority 2005, published 2009).
# Legend:
# [1] = tested on: S. aureus ATCC 29213; test: Disc diffusion assay (DDA); assay type: cell-based, Staphylococcus aureus; settings: Staphylococcus aureus, ATCC29213; S. aureus ATCC 29213; unsupplemented agar; 200 μg per disc (thymoquinone 50 μg, 2,6-dimethoxy-p-benzoquinone 100 μg); read-out: DDA (diameter of zone of inhibition)
# Outline: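 Paper discs loaded with test compound (usually 200 μg/disc), solvent evaporated ≥30 min, placed on inoculated Mueller-Hinton agar pH 7.2. Incubated aerobically at 37 °C for 24 h; inhibition zone diameter measured and area calculated as π(D/2)^2.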
# [2] = tested on: P. acnes PPR-007; test: Disc diffusion assay (DDA); assay type: cell-based, Propionibacterium acnes; settings: resistance Clin, 200 μg per disc
# Experimental: (§1) The Propionibacterium spp organisms were cultured and maintained on Wilkins-Chalgren Anaerobe Medium (agar and broth) at pH 6.0; cultures were incubated anaerobically at 37° C. for 72 hours.
# (§2) A sterile paper disc was impregnated with a sample of the test compound and a minimum of 30 minutes allowed for the solvents to evaporate as far as possible. The disc was then placed on an agar plate onto which the test micro-organism had been inoculated. The plate was then incubated under the conditions described above, following which it was examined visually for signs of bacterial growth. If the test compound had antimicrobial activity, a circular zone of no growth would be obtained around the disc. The diameter of this zone of “inhibition” was measured using a ProtoCOL™ automated zone sizer (Synbiosis, Cambridge, UK). In general, a greater diameter and/or area of the zone of inhibition indicates a greater antimicrobial activity in the relevant test compound, although other factors such as test compound mobility through the agar gel may also influence the result.
# (§3) The area of the zone of inhibition was calculated from the measured zone diameter (D) using the formula π(D/2)^2.
# (§4) For the DDA assays, 200 μg of TBHQ was loaded onto each disc. The solvent used for the TBHQ was ethanol.
# [3] = tested on: P. acnes PRP-002; test: Disc diffusion assay (DDA); assay type: cell-based, Propionibacterium acnes; settings: resistance Tet/MLS, 200 μg per disc
# Experimental: as §1, §2, §3, §4
# [4] = tested on: P. acnes PRP-003; test: Disc diffusion assay (DDA); assay type: cell-based, Propionibacterium acnes; settings: resistance Tet, 200 μg per disc
# Experimental: as §1, §2, §3, §4
# [5] = tested on: P. acnes PRP-004; test: Disc diffusion assay (DDA); assay type: cell-based, Propionibacterium acnes; settings: resistance Tet, 200 μg per disc
# Experimental: as §1, §2, §3, §4
# [6] = tested on: P. acnes PRP-017; test: Disc diffusion assay (DDA); assay type: cell-based, Propionibacterium acnes; settings: resistance MLS, 200 μg per disc
# Experimental: as §1, §2, §3, §4
# [7] = tested on: P. acnes PRP-053; test: Disc diffusion assay (DDA); assay type: cell-based, Propionibacterium acnes; settings: resistance Tet/MLS, 200 μg per disc
# Experimental: as §1, §2, §3, §4
# [8] = tested on: P. acnes PRP-059; test: Disc diffusion assay (DDA); assay type: cell-based, Propionibacterium acnes; settings: resistance MLS, 200 μg per disc
# Experimental: as §1, §2, §3, §4
# [9] = tested on: P. acnes PRP-068; test: Disc diffusion assay (DDA); assay type: cell-based, Propionibacterium acnes; settings: resistance Ery, 200 μg per disc
# Experimental: as §1, §2, §3, §4
# [10] = tested on: P. acnes PRP-101; test: Disc diffusion assay (DDA); assay type: cell-based, Propionibacterium acnes; settings: resistance Tet/MLS, 200 μg per disc
# Experimental: as §1, §2, §3, §4
# [11] = tested on: P. acnes PRP-102; test: Disc diffusion assay (DDA); assay type: cell-based, Propionibacterium acnes; settings: resistance Tet/MLS, 200 μg per disc
# Experimental: as §1, §2, §3, §4
# [12] = tested on: P. acnes PRP-010; test: Disc diffusion assay (DDA); assay type: cell-based, Propionibacterium acnes; settings: resistance MLSK, 200 μg per disc
# Experimental: Other propionibacterial strains were also tested, as described in Example 4 below. These included certain antibiotic resistant propionibacteria, such as the two P. acnes strains designated PRP-010 and PRP-039 which are resistant respectively to macrolides-lincosamides-streptogramins-ketolides (MLSK) and to macrolides-lincosamides-streptogramins (MLS) and tetracycline—in other words, PRP-010 is resistant to erythromycin and clindamycin, and PRP-039 to erythromycin, clindamycin and tetracycline.
# as §1
# A sterile paper disc was impregnated with a sample of the test compound and a minimum of 30 minutes allowed for the solvents to evaporate as far as possible. The disc was then placed on an agar plate onto which the test micro-organism had been inoculated. The plate was then incubated under the conditions described above, following which it was examined visually for signs of bacterial growth. […] The diameter of this zone of “inhibition” was measured using a ProtoCOL™ automated zone sizer (Synbiosis, Cambridge, UK). […]
# The area of the zone of inhibition was calculated from the measured zone diameter (D) using the formula π(D/2)^2. […]
# [13] = tested on: H. influenzae ATCC 49247; test: MIC assay; assay type: cell-based; settings: Haemophilus influenzae, ATCC49247
# From the text: 5. Haemophilus influenzae ATCC 49247—a member of the genus Haemophilus, these organisms are Gram-negative bacilli which grow under aerobic or anaerobic conditions but require media with special supplements for laboratory culture. Strains of H. influenzae may be capsulated or non-capsulated. The capsulate strains are divided into serotypes, (designated b,c,d,e,f), on the basis of capsular antigens. The serotype H. influenzae type b is an important cause of invasive infections in humans, particularly in young children. The non-capsulate strains are common commensals in the upper respiratory tract, although there are also some healthy carriers of the type b strain. In the context of skin and topical treatments, H. influenzae can be a cause of cellulitis and otitis media (middle ear infection), again particularly in young children. […]
# This is a standard international method for quantitatively assessing the antimicrobial activity of a compound in a liquid medium. […]
# The wells were inoculated with a liquid suspension of freshly grown micro-organism and incubated under the conditions described above. […] The MIC value was recorded as the lowest concentration of test compound required to inhibit microbial growth, i.e., the lowest concentration for which the liquid in the well remained clear. […]
# [14] = tested on: H. influenzae ATCC 49247; test: MBC assay; assay type: cell-based, Haemophilus influenzae
# Experimental: The H. influenzae strain was cultured and maintained on Haemophilus Test Medium (HTM) agar/broth (the composition of which is as described in NCCLS M7-A6 Vol. 23 No. 2); cultures were incubated in a CO2 atmosphere at 37° C. for 24 hours.
# (§5) This assay, normally carried out after an MIC assay, determines the minimum concentration of a compound that is lethal to the micro-organism being tested.
# (§6) These samples were then individually sub-cultured on non-selective agar medium, under the incubation conditions described above. Following incubation they were examined visually for bacterial growth.
# (§7) The activity of TBHQ against three other bacterial strains was investigated using MIC, MBC and DDA assays as described above. For the DDA assays, 200 μg of TBHQ was loaded onto each disc, using ethanol as the solvent.
# [15] = tested on: E. faecalis ATCC 29212; test: MBC assay; assay type: cell-based, Enterococcus faecalis
# Experimental: The staphylococci and enterococci were cultured and maintained on Mueller-Hinton Medium (agar and broth) at pH 7.2; they were incubated aerobically at 37° C. for 24 hours.
# as §5, §6, §7
smiles,measurement,setting,value
"CC(C)(C)c1cc(O)ccc1O [TBHQ, 2-t-butyl hydroquinone]",zone of inhibition at 200 µg/disc,[1],41.8 mm
same,DDA,[2],13.43 mm
same,DDA,[3],28.42 mm
same,DDA,[4],38.01 mm
same,DDA,[5],30.32 mm
same,DDA,[6],18.40 mm
same,DDA,[7],23.49 mm
same,DDA,[8],17.56 mm
same,DDA,[9],20.89 mm
same,DDA,[10],0.0 mm
same,DDA,[11],23.80 mm
same,DDA,[12],18.71 mm
same,MIC,[13],15.6 µg/mL
same,MIC/MBC ratio,[14],1
same,MBC,"[14]; Haemophilus influenzae, ATCC49247",15.6 µg/mL
same,MIC/MBC ratio,[15],0.5
